Values of other authors in patent US20120083772A1, “CORNEAL TREATMENT SYSTEM AND METHOD” (CURVERIGHT LLC, priority 2010, published 2012).

System: living cells

OO [hydrogen peroxide]
concentration that can stop the proliferation of living cells: 1000 nM
